Values after ≈ are worked out from the molar mass of the structure shown. Read-outs that look alike come from different tables or passages of the source.
Legend:
Mtb [1] = assay: microbe, parasite or virus in culture; format: cell-based, Mycobacterium tuberculosis; settings: Mycobacterium tuberculosis, read-out: MIC (I)
Mtb [2] = assay: microbe, parasite or virus in culture; format: cell-based, Mycobacterium tuberculosis; settings: Mycobacterium tuberculosis, read-out: MIC (III)
in vitro = settings: African green monkey

Row | SMILES | MIC (Mtb [1]) | MIC (Mtb [2]) | CC50 (in vitro)
1 | CC(C)OC(=O)NC(=O)c1ccsc1NC(=O)c1c(F)c(F)c(F)c(F)c1F [Compound 296] | > 3 µg/mL | 5 to 25 µg/mL (≈ 11.8 to 59.2 µM) | < 25 µg/mL
2 | C=CCOC(=O)NC(=O)c1ccsc1NC(=O)c1cnc2ccnn2c1 [Compound 297] | < 1 µg/mL | < 5 µg/mL | < 25 µg/mL
3 | CC(C)OC(=O)NC(=O)c1ccsc1NC(=O)c1cnc2ccnn2c1 [Compound 298] | < 1 µg/mL | < 5 µg/mL | < 25 µg/mL
4 | CCOC(=O)NC(=O)c1ccsc1NC(=O)c1cnc2c(-c3ccc(OC)cc3)cnn2c1 [Compound 299] | < 1 µg/mL | > 25 µg/mL | < 25 µg/mL
5 | O=C(NC(=O)c1ccsc1NC(=O)c1cnc2ccnn2c1)OCc1ccccc1 [Compound 300] | > 3 µg/mL | > 25 µg/mL | 25 to 50 µg/mL (≈ 59.3 to 119 µM)
6 | O=C(NC(=O)c1ccsc1NC(=O)c1nc2cnccc2s1)OCc1cccnc1 [Compound 301] | > 3 µg/mL | > 25 µg/mL | 25 to 50 µg/mL (≈ 56.9 to 114 µM)
7 | C#CCOC(=O)NC(=O)c1ccsc1NC(=O)c1nc2ccccc2s1 [Compound 303] | < 1 µg/mL | > 25 µg/mL | < 25 µg/mL
8 | CCC(OC(=O)NC(=O)c1ccsc1NC(=O)c1nc2cnccc2s1)c1ccccc1 (stereo not drawn) [Compound 305] | 1 to 3 µg/mL (≈ 2.14 to 6.43 µM) | > 25 µg/mL | < 25 µg/mL
9 | CCC(OC(=O)NC(=O)c1ccsc1NC(=O)c1cnc2ccnn2c1)c1ccccc1 (stereo not drawn) [Compound 306] | > 3 µg/mL | > 25 µg/mL | < 25 µg/mL
10 | CCC(OC(=O)NC(=O)c1ccsc1NC(=O)c1nc2ccccc2s1)c1ccccc1 (stereo not drawn) [Compound 307] | > 3 µg/mL | 5 to 25 µg/mL (≈ 10.7 to 53.7 µM) | < 25 µg/mL
11 | CCOC(=O)NC(=O)c1cc(CC(=O)O)sc1NC(=O)c1nc2cnccc2s1 [Compound 308] | > 3 µg/mL | > 25 µg/mL | < 25 µg/mL
12 | CCOC(=O)NC(=O)c1ccsc1NC(=O)c1cn2c(n1)CCCC2 [Compound 309] | 1 to 3 µg/mL (≈ 2.76 to 8.28 µM) | 5 to 25 µg/mL (≈ 13.8 to 69 µM) | < 25 µg/mL
13 | CCOC(=O)NC(=O)c1ccsc1NC(=O)c1cc2ccccn2c1 [Compound 310] | > 3 µg/mL | > 25 µg/mL | > 50 µg/mL
14 | CCOC(=O)NC(=O)c1ccsc1NC(=O)c1nc2cnc(N3CCOCC3)cc2s1 [Compound 311] | < 1 µg/mL | > 25 µg/mL | > 50 µg/mL
15 | CCOC(=O)NC(=O)c1ccsc1NC(=O)Nc1nc2ccccc2s1 [Compound 312] | > 3 µg/mL | > 25 µg/mL | 25 to 50 µg/mL (≈ 64 to 128 µM)
16 | COC(=O)NC(=O)c1ccsc1NC(=O)c1cnc2ccnn2c1 [Compound 313] | > 3 µg/mL | > 25 µg/mL | 25 to 50 µg/mL (≈ 72.4 to 145 µM)
17 | COC(=O)NC(=O)c1ccsc1NC(=O)c1nc2cnccc2s1 [Compound 314] | > 3 µg/mL | > 25 µg/mL | 25 to 50 µg/mL (≈ 69 to 138 µM)
18 | CCOC(=O)NC(=O)c1ccsc1NC(=O)c1cnc2c(N3CCOCC3)cnn2c1 [Compound 315] | < 1 µg/mL | > 25 µg/mL | 25 to 50 µg/mL (≈ 56.2 to 112 µM)
19 | CC(C)OC(=O)NC(=O)c1cc(F)sc1NC(=O)c1cnc2ccnn2c1 [Compound 316] | 1 to 3 µg/mL (≈ 2.56 to 7.67 µM) | > 25 µg/mL | 25 to 50 µg/mL (≈ 63.9 to 128 µM)
20 | CC(C)OC(=O)NC(=O)c1ccsc1NC(=O)c1ccn2nccc2c1 [Compound 317] | < 1 µg/mL | > 25 µg/mL | < 25 µg/mL
21 | CCOC(=O)NC(=O)c1cc(F)sc1NC(=O)c1nc2cccnc2s1 [Compound 318] | < 1 µg/mL | > 25 µg/mL | 25 to 50 µg/mL (≈ 63.4 to 127 µM)

Row | SMILES | MIC (Mtb [1]) | MIC (Mtb [2]) | CC50 (in vitro)
22 | O=C(NC(=O)c1ccsc1NC(=O)c1nc2ccccc2s1)OCCC(F)(F)F [Compound 319] | < 1 µg/mL | > 25 µg/mL | < 25 µg/mL
23 | O=C(NC(=O)c1ccsc1NC(=O)c1nc2cnccc2s1)OCCC(F)(F)F [Compound 320] | < 1 µg/mL | > 25 µg/mL | > 50 µg/mL
24 | O=C(NC(=O)c1ccsc1NC(=O)c1nc2ccccc2s1)OC1CCC1 [Compound 321] | < 1 µg/mL | > 25 µg/mL | > 50 µg/mL
25 | O=C(NC(=O)c1ccsc1NC(=O)c1cnc2ccnn2c1)OCCC(F)(F)F [Compound 322] | > 3 µg/mL | > 25 µg/mL | < 25 µg/mL
26 | CCC(CC)OC(=O)NC(=O)c1ccsc1NC(=O)c1cnc2ccnn2c1 [Compound 327] | 1 to 3 µg/mL (≈ 2.49 to 7.47 µM) | > 25 µg/mL | < 25 µg/mL
27 | CCC(CC)OC(=O)NC(=O)c1ccsc1NC(=O)c1nc2cnccc2s1 [Compound 328] | < 1 µg/mL | > 25 µg/mL | < 25 µg/mL
28 | CCOC(=O)NC(=O)c1ccsc1NC(=O)c1cc2ccncc2s1 [Compound 329] | < 1 µg/mL | > 25 µg/mL | < 25 µg/mL
29 | CC(C)OC(=O)NC(=O)c1ccsc1NC(=O)c1cc2c(F)cccc2s1 [Compound 330] | < 1 µg/mL | 5 to 25 µg/mL (≈ 12.3 to 61.5 µM) | < 25 µg/mL
30 | CCOC(=O)NC(=O)c1ccsc1NC(=O)c1cc2c(F)cccc2s1 [Compound 331] | < 1 µg/mL | 5 to 25 µg/mL (≈ 12.7 to 63.7 µM) | < 25 µg/mL
31 | CCOC(=O)NC(=O)c1ccsc1NC(=O)c1cc2cccnc2s1 [Compound 332] | < 1 µg/mL | > 25 µg/mL | > 50 µg/mL
32 | CCOC(=O)NC(=O)c1ccsc1NC(=O)c1cc2ccc(Cl)cc2s1 [Compound 333] | < 1 µg/mL | 5 to 25 µg/mL (≈ 12.2 to 61.1 µM) | 25 to 50 µg/mL (≈ 61.1 to 122 µM)
33 | CCOC(=O)NC(=O)c1ccsc1NC(=O)c1cc2cnccc2s1 [Compound 334] | < 1 µg/mL | > 25 µg/mL | > 50 µg/mL
34 | CCOC(=O)NC(=O)c1ccsc1NC(=O)c1c(C)nc2ccc(C)cn12 [Compound 336] | > 3 µg/mL | > 25 µg/mL | 25 to 50 µg/mL (≈ 64.7 to 129 µM)
35 | CCOC(=O)NC(=O)c1cc(F)sc1NC(=O)c1nc2cnccc2s1 [Compound 337] | < 1 µg/mL | > 25 µg/mL | 25 to 50 µg/mL (≈ 63.4 to 127 µM)
36 | CCOC(=O)NC(=O)c1cc(F)sc1NC(=O)c1cn2ccccc2n1 [Compound 338] | < 1 µg/mL | > 25 µg/mL | 25 to 50 µg/mL (≈ 66.4 to 133 µM)
37 | CC(C)OC(=O)NC(=O)c1cc(F)sc1NC(=O)c1cn2ccccc2n1 [Compound 339] | < 1 µg/mL | > 25 µg/mL | 25 to 50 µg/mL (≈ 64 to 128 µM)
38 | CC(C)OC(=O)NC(=O)c1ccsc1NC(=O)c1cc2ncccn2n1 [Compound 340] | < 1 µg/mL | > 25 µg/mL | 25 to 50 µg/mL (≈ 67 to 134 µM)
39 | CCOC(=O)NC(=O)c1cc(F)sc1NC(=O)c1cnc2ccnn2c1 [Compound 341] | < 1 µg/mL | > 25 µg/mL | 25 to 50 µg/mL (≈ 66.3 to 133 µM)
40 | CC(C)OC(=O)NC(=O)c1cc(F)sc1NC(=O)c1nc2ccccc2s1 [Compound 342] | < 1 µg/mL | 5 to 25 µg/mL (≈ 12.3 to 61.4 µM) | 25 to 50 µg/mL (≈ 61.4 to 123 µM)
41 | CCOC(=O)NC(=O)c1cc(F)sc1NC(=O)c1ccn2nccc2c1 [Compound 343] | < 1 µg/mL | > 25 µg/mL | < 25 µg/mL
42 | CC(C)OC(=O)NC(=O)c1cc(F)sc1NC(=O)c1nc2cccnc2s1 [Compound 344] | < 1 µg/mL | > 25 µg/mL | 25 to 50 µg/mL (≈ 61.2 to 122 µM)

Row | SMILES | MIC (Mtb [1]) | MIC (Mtb [2]) | CC50 (in vitro)
43 | CC(C)OC(=O)NC(=O)c1cc(F)sc1NC(=O)c1cc2ncccn2n1 [Compound 345] | < 1 µg/mL | > 25 µg/mL | 25 to 50 µg/mL (≈ 63.9 to 128 µM)
44 | CC(C)OC(=O)NC(=O)c1cc(F)sc1NC(=O)c1ccn2nccc2c1 [Compound 346] | 1 to 3 µg/mL (≈ 2.56 to 7.68 µM) | > 25 µg/mL | < 25 µg/mL
45 | COC(=O)NC(=O)c1ccsc1NC(=O)c1cn2ccccc2n1 [Compound 347] | > 3 µg/mL | > 25 µg/mL | 25 to 50 µg/mL (≈ 72.6 to 145 µM)
46 | O=C(NCC(F)(F)F)NC(=O)c1ccsc1NC(=O)c1nc2ccccc2s1 [Compound 349] | > 3 µg/mL | > 25 µg/mL | 25 to 50 µg/mL (≈ 58.4 to 117 µM)
47 | CC(C)OC(=O)NC(=O)c1ccsc1NC(=O)c1cc2ccccn2n1 [Compound 352] | < 1 µg/mL | > 25 µg/mL | 25 to 50 µg/mL (≈ 67.1 to 134 µM)
48 | CCOC(=O)NC(=O)c1ccsc1NC(=O)c1cnc2ccoc2c1 [Compound 353] | 1 to 3 µg/mL (≈ 2.78 to 8.35 µM) | > 25 µg/mL | 25 to 50 µg/mL (≈ 69.6 to 139 µM)
49 | CC(C)OC(=O)NC(=O)c1ccsc1NC(=O)c1cnc2ccoc2c1 [Compound 354] | > 3 µg/mL | > 25 µg/mL | 25 to 50 µg/mL (≈ 67 to 134 µM)
50 | CCOC(=O)NC(=O)c1ccsc1NC(=O)/C=C/c1ccncc1 [Compound 356] | > 3 µg/mL | > 25 µg/mL | 25 to 50 µg/mL (≈ 72.4 to 145 µM)
51 | CCOC(=O)NC(=O)c1ccsc1NC(=O)/C=C/c1nc2ccccc2s1 [Compound 365] | < 1 µg/mL | > 25 µg/mL | < 25 µg/mL
52 | CC(C)OC(=O)NC(=O)c1ccsc1NC(=O)/C=C/c1nc2ccccc2s1 [Compound 366] | < 1 µg/mL | 5 to 25 µg/mL (≈ 12 to 60.2 µM) | < 25 µg/mL
53 | CC(=O)N1CCC(OC(=O)NC(=O)c2ccsc2NC(=O)c2nc3cnccc3s2)CC1 [Compound 367] | > 3 µg/mL | > 25 µg/mL | 25 to 50 µg/mL (≈ 52.8 to 106 µM)
54 | CC(=O)N1CCC(OC(=O)NC(=O)c2ccsc2NC(=O)c2cnc3ccnn3c2)CC1 [Compound 368] | > 3 µg/mL | > 25 µg/mL | 25 to 50 µg/mL (≈ 54.8 to 110 µM)
55 | O=C(NC(=O)c1ccsc1NC(=O)c1nc2cnccc2s1)OCCOCc1ccccc1 [Compound 369] | < 1 µg/mL | > 25 µg/mL | 25 to 50 µg/mL (≈ 51.8 to 104 µM)
56 | O=C(NC(=O)c1ccsc1NC(=O)c1nc2ccccc2s1)OCCOCc1ccccc1 [Compound 371] | < 1 µg/mL | 5 to 25 µg/mL (≈ 10.4 to 51.9 µM) | < 25 µg/mL
57 | COCCOC(=O)NC(=O)c1ccsc1NC(=O)c1cnc2ccnn2c1 [Compound 372] | < 1 µg/mL | > 25 µg/mL | 25 to 50 µg/mL (≈ 64.2 to 128 µM)
58 | COCCOC(=O)NC(=O)c1ccsc1NC(=O)c1cn2ccccc2n1 [Compound 373] | > 3 µg/mL | > 25 µg/mL | 25 to 50 µg/mL (≈ 64.4 to 129 µM)
59 | O=C(NC(=O)c1ccsc1NC(=O)c1cn2ccccc2n1)OCCOCc1ccccc1 [Compound 374] | < 1 µg/mL | > 25 µg/mL | 25 to 50 µg/mL (≈ 53.8 to 108 µM)
60 | CC(=O)N1CCC(OC(=O)NC(=O)c2ccsc2NC(=O)c2cn3ccccc3n2)CC1 [Compound 375] | > 3 µg/mL | > 25 µg/mL | 25 to 50 µg/mL (≈ 54.9 to 110 µM)
61 | CCOC(=O)N(C)C(=O)c1ccsc1NC(=O)c1nc2cnccc2s1 [Compound 376] | > 3 µg/mL | > 25 µg/mL | < 25 µg/mL

Source: patent US20160194299A1 (priority 2013, published 2016)
